{"source": "patent US12460153B2", "about": "“Method for transforming an essential oil” (PRANAROM INTERNATIONAL S.A., priority 2019, dated 2025)", "key": {"[1]": {"test_system": "Staphylococcus aureus LMG 15975", "assay": "Individual activity: MIC by microdilution in 96-well tray", "type": "cell-based", "conditions": "S. aureus LMG 15975 (MRSA+); substance alone", "text": "(§1) Within the framework of this invention, the individual activity makes reference to the antimicrobial activity exerted by the EO itself. The individual activity may, for example, be evaluated simply by measuring the MIC (minimum inhibitory concentration), which is the lowest concentration sufficient to inhibit, in vitro, the growth of a bacterial strain, after treating different bacterial strains by different EOs transformed or not according to the method of the invention.\n(§2) To do this, the stock solutions of EO (EO-C and EO-T) were first diluted in DMSO at the rate of 10 μl EO in 300 μl DMSO, They were agitated and stored at ambient temperature, away from the light, in glass tubes autoclaved with threaded cap. The individual activity of the EOs was measured by the microdilution method in a 96 well tray so as to obtain the MIC, value at which a solution inhibits bacterial growth. The bacterial strains treated were S. aureus LMG 15975 (methicillin-resistant Staphylococcus aureus, hereinafter referred to as MRSA÷), E. coli LMG 8223, E. coli LMG 15862, P. aeruginosa LMG 6395, S. aureus LMG 8064, S. aureus LMG 16217 (methicillin-resistant Staphylococcus aureus, hereinafter referred to as MRSA++), E. faecalis LMG 8222, K. pneumoniae LMG 20218 and E. aerogenes LMG 2094. […]"}, "S. aureus LMG 16217": {"test_system": "S. aureus LMG 16217", "assay": "Individual activity: MIC of antibiotic alone, microdilution", "type": "cell-based, Staphylococcus aureus", "conditions": "S. aureus LMG 16217 (MRSA++)", "method": "as §1, with “Within the framework of this invention, the individual activity makes reference to the antimicrobial activity exerted by the EO itself.” left out\nTo do this, the stock solutions of EO (EO-C and EO-T) were first diluted in DMSO at the rate of 10 μl EO in 300 μl DMSO, They were agitated and stored at ambient temperature, away from the light, in glass tubes autoclaved with threaded cap. The individual activity of the EOs was measured by the microdilution method in a 96 well tray so as to obtain the MIC, value at which a solution inhibits bacterial growth. The bacterial strains treated were S. aureus LMG 15975 (methicillin-resistant Staphylococcus aureus, hereinafter referred to as MRSA÷), E. coli LMG 8223, E. coli LMG 15862, P. aeruginosa LMG 6395, S. aureus LMG 8064, S. aureus LMG 16217 (methicillin-resistant Staphylococcus aureus, hereinafter referred to as MRSA++), E. faecalis LMG 8222, K. pneumoniae LMG 20218 and E. aerogenes LMG 2094. Inocula of the bacterial strains were prepared by placing colonies of 18-24 hours of strains suspended in a sterile physiological solution (NaCl 0.85%). These inocula were then adjusted and diluted so as to obtain a final concentration of 5×10^5 CFU/ml. Concerning the test solutions, 300 μl of stock solutions of EO (diluted in DMSO) were added to 4.7 ml culture medium (for example to Mueller Hinton Broth), so as to obtain a solution of EO of 2 mg/ml which was then diluted in series by half in multi-well trays. The final percentage of DMSO in the wells is less than 5%. After inoculation, the multi-well trays were incubated for 18-24 hours at 37° C. and the presence of bacteria was viewed by adding methyl tetrazolium (MU)."}, "S. aureus LMG 8064": {"test_system": "S. aureus LMG 8064", "assay": "Individual activity: MIC by microdilution", "type": "cell-based, Staphylococcus aureus", "conditions": "MSSA LMG 8064 strain; PV alone", "text": "as §1, §2"}}, "data": [{"compound": "CC1(C)S[C@@H]2[C@H](NC(=O)COc3ccccc3)C(=O)N2[C@H]1C(=O)O", "note": "[PV, penicillin V]", "values": [{"measurement": "Individual activity MIC: PV/EO", "setting": "[1]", "value": 4, "unit": "µg/mL"}, {"measurement": "MIC of the antibiotic on this strain", "setting": "S. aureus LMG 16217", "value": 64, "unit": "µg/mL"}, {"measurement": "MIC of PV", "setting": "S. aureus LMG 8064", "value": 0.015, "unit": "µg/mL"}]}, {"compound": "CC1(C)S[C@@H]2[C@H](NC(=O)[C@H](N)c3ccc(O)cc3)C(=O)N2[C@H]1C(=O)O", "note": "[amoxicillin]", "values": [{"measurement": "MIC of the antibiotic on this strain", "setting": "S. aureus LMG 16217", "value": 64, "unit": "µg/mL"}]}, {"compound": "CC1(C)S[C@@H]2[C@H](NC(=O)Cc3ccccc3)C(=O)N2[C@H]1C(=O)O", "note": "[penicillin G]", "values": [{"measurement": "MIC of the antibiotic on this strain", "setting": "S. aureus LMG 16217", "value": 64, "unit": "µg/mL"}]}]}
